Measurements as given in patent US10927104B2, “Ether compounds and uses thereof” (BioTheryX, Inc., priority 2017, dated 2021).

Columns and labels:
Format in all cases: cell-based
[1] = system: IL-1β; assay: PBMC assay, LPS-induced IL-1β (Meso Scale); conditions: Homo sapiens, PBMCs, 100 ng/mL LPS 18-24 hrs; for inhibition at 0.1 µM: compound at 0.1 μM; for inhibition at 1 µM: compound at 1 μM; for inhibition at 10 µM: compound at 10 μM
Method: (§1) FIG. 1 represents the activity against IL-1-beta in peripheral blood mononuclear cells (PBMCs), plated in 96 well plates and pretreated with compound for 1 hour and then induced with 100 ng/mL LPS for 18-24 hrs. Cytokines in the media were measured according to MesoScale protocol. Negative control wells were treated with DMSO. Compound activity is measured as a percentage of LPS-induced activity.
(§2) Frozen primary blood mononuclear cells (PBMCs) were purchased from AllCells. Cells were quick thawed, washed once with RPMI-1640/10% FBS.
(§3) 1% Penicillin/1% Streptomycin and plated in 96 well plates at 200,000 cells per well. Cells were pretreated with DMSO only, or Compound 1 for 1 hour and then induced with 100 ng/mL lipopolysaccharide (LPS) for 18-24 hrs. The supernatant was analyzed for IL-1 beta, IL-6, and TNFα, using Meso Scale assay according to manufacturer's protocol. The negative control wells were treated with DMSO.
(§4) Compound activity was measured as fold difference from the DMSO control. IL-1β activity is shown in FIG. 1; IL-6 activity is shown in FIG. 2; TNFα activity is shown in FIG. 3; and IL-2 activity is shown in FIG. 4. Additional data for compounds (shown as percent inhibition) at 10 μM is shown in Table 1; at 1 μM in Table 2; and at 0.1 μM in Table 3.

[2] = system: IL-6; assay: PBMC assay, LPS-induced IL-6 (Meso Scale); conditions: Homo sapiens, PBMCs, 100 ng/mL LPS 18-24 hrs; for inhibition at 0.1 µM: compound at 0.1 μM; for inhibition at 1 µM: compound at 1 μM; for inhibition at 10 µM: compound at 10 μM
Method: as §1, with “FIG. 2” for “FIG. 1”, “against IL-6” for “against IL-1-beta”, “Cytokines” for “Cytokines in the media”, “activity was” for “activity is”
as §2, §3, §4

[3] = system: TNFα; assay: PBMC assay, LPS-induced TNFα (Meso Scale); conditions: Homo sapiens, PBMCs, 100 ng/mL LPS 18-24 hrs; for inhibition at 0.1 µM: compound at 0.1 μM; for inhibition at 1 µM: compound at 1 μM; for inhibition at 10 µM: compound at 10 μM
Method: as §1, with “FIG. 3” for “FIG. 1”, “against TNFα” for “against IL-1-beta”, “protocol. The negative” for “protocol. Negative”
as §2, §3, §4

[4] = system: IL-2; assay: Anti-CD3-induced IL-2 secretion in PBMCs (Mesoscale); conditions: Homo sapiens, PBMC, anti-CD3 stimulated PBMCs, 24 hr, vs DMSO control, read-out: IL-2 Fold Change; for fold induction at 0.1 µM: compound at 0.1 μM; for fold induction at 1 µM: compound at 1 μM; for fold induction at 10 µM: compound 10 μM
Method: FIG. 4 represents Anti-CD3-induced IL-2 secretion in PBMCs. 1 μg/mL anti-CD3 (OKT-3) antibody in PBS coated onto 96-well plates overnight at 4° C. Approximately, 550,000 PBMCs were added to each well, followed by addition of DMSO only (control) or Compound 1. Induction was measured after 24 hrs as fold difference from the DMSO stimulated control.
as §2
For the IL-2 analysis, 96 well plates were precoated with 1 μg/mL anti-human CD3 antibody (OKT3, eBioscience Inc.). After washing with PBS, Compound 1 was added (50 μL/well) followed by PBMCs diluted at 3-4 million cells/mL (150 μL/well). Plates were incubated for 24 hr and the supernatants collected for Mesoscale IL-2 analysis.
as §4

[5] = system: Molm-13 cells; assay: Cell viability assay (CellTiter-Glo), Molm-13 proliferation; conditions: Homo sapiens, MOLM-13, 72 h, 3 days; for inhibition at 1 µM: compound at 1 μM; for inhibition at 10 µM: compound at 10 μM
Method: (§5) Molm-13 and MV-4-11 cells were cultivated in RPMI-1640 (10% FBS/1% pen-strep) and were plated in white walled 96-well plates at 20,000 cells/well.
(§6) Cells were treated with compound at the indicated concentration or DMSO (control) and the cultures were incubated for 3 days at 37° C. and 5% CO2. Following the incubation period, 100 μL of CellTiterGlow (CTG) reagent (CellTiter-Glo® Luminescent Cell Viability Assay, Promega (Madison, Wis.)) was added to each well. Following a 10 min incubation with shaking, luminescence was measured using a Victor Wallac Luminometer.

[6] = system: MV-4-11 cells; assay: Cell viability assay (CellTiter-Glo), MV-4-11 proliferation; conditions: Homo sapiens, MV4-11, 72 h, 3 days; for inhibition at 1 µM: compound at 1 μM; for inhibition at 10 µM: compound at 10 μM
Method: as §5, §6

| SMILES | inhibition at 0.1 µM [1] [%] | inhibition at 1 µM [1] [%] | inhibition at 0.1 µM [2] [%] | inhibition at 1 µM [2] [%] | inhibition at 0.1 µM [3] [%] | inhibition at 1 µM [3] [%] | fold induction at 0.1 µM [4] | fold induction at 1 µM [4] | inhibition at 0.1 µM ([5]; compound at 0.1 μM) [%] | inhibition at 1 µM [5] [%] | inhibition at 10 µM [5] [%] | inhibition at 1 µM [6] [%] | inhibition at 10 µM [6] [%] | inhibition at 10 µM [1] [%] | inhibition at 10 µM [2] [%] | inhibition at 10 µM [3] [%] | fold induction at 10 µM [4] |
| --- | --- | --- | --- | --- | --- | --- | --- | --- | --- | --- | --- | --- | --- | --- | --- | --- | --- |
| O=C1CCC[C@H](N2Cc3c(OCc4ccc(CN5CCOCC5)cc4)cccc3C2=O)C(=O)N1 [Compound 1, (S)-3-(4-((4-(morpholinomethyl)benzyl)oxy)-1-oxoisoindolin-2-yl)azepane-2,7-dione] | 83 | 88 | 63 | 71 | 89 | 93 | 2.1 | 0.8 | 30 | 15 | 37 | 2 | 5 | – | – | – | – |
| O=C1CCC[C@H](N2Cc3c(OCc4ccc(CN5CCOc6ccccc65)cc4)cccc3C2=O)C(=O)N1 [Compound 2, (S)-3-(4-((4-((2,3-dihydro-4H-benzo[b][1,4]oxazin-4-yl)methyl)benzyl)oxy)-1-oxoisoindolin-2-yl)azepane-2,7-dione] | 72 | 86 | 43 | 67 | 81 | 90 | 1.3 | 2.3 | – | 5 | 30 | 6 | 16 | – | – | – | – |
| O=C1CCC[C@H](N2Cc3c(OCc4ccc(CN5CCOCC5)c(Cl)c4)cccc3C2=O)C(=O)N1 [Compound 3] | 91 | 93 | 72 | 79 | 91 | 93 | 2 | 0.7 | – | 1 | 29 | 0 | 20 | 93 | 77 | 94 | – |
| O=C1CCC[C@H](N2Cc3c(OCc4ccc(C5CCNCC5)cc4)cccc3C2=O)C(=O)N1 [Compound 4] | 72 | 86 | 43 | 67 | 81 | 90 | 1.3 | 2.3 | – | – | – | 0 | 0 | – | – | – | – |
| NCc1ccc(COc2cccc3c2CN([C@H]2CCCC(=O)NC2=O)C3=O)cc1 [Compound 5, trifluoroacetic acid] | 64 | – | 37 | – | 55 | – | 1.2 | 2.1 | – | – | 40 | 1 | 3 | – | – | – | – |
| O=C1CCC[C@H](N2Cc3c(OCc4ccc(CN5CCOCC5)cc4)cc(F)cc3C2=O)C(=O)N1 [Compound 7] | 71 | – | 55 | – | 62 | – | 1 | 1.1 | – | – | – | 0 | 0 | – | – | – | – |
| O=C1CCC[C@H](N2C(=O)c3cccc(OCc4ccc(CN5CCOCC5)cc4)c3C2=O)C(=O)N1 [Compound 11] | 21 | – | 12 | – | 21 | – | 1.2 | 1.9 | – | – | – | 0 | 0 | – | – | – | – |
| O=C1CCC[C@H](N2Cc3cc(OCc4ccc(CN5CCOCC5)cc4)ccc3C2=O)C(=O)N1 [Compound 15] | – | 59 | – | 10 | – | 65 | – | 1.9 | – | – | – | 38 | 99 | 81 | 50 | 87 | 2.1 |
| O=C1COC[C@H](N2Cc3c(OCc4ccc(CN5CCOCC5)cc4)cccc3C2=O)C(=O)N1 [Compound 16] | – | 24 | – | 5 | – | 27 | – | 0.7 | – | – | – | 0 | 99 | 52 | 78 | 75 | 0.2 |
| Cc1cnc(Nc2ccc(OCCCNCC(=O)NCc3ccc(COc4cccc5c4CN(C4CCC(=O)NC4=O)C5=O)cc3)cc2)nc1Nc1cccc(S(=O)(=O)NC(C)(C)C)c1 (stereo not shown) [Compound 17] | – | 75 | – | 35 | – | 75 | – | 1.5 | – | – | – | 31 | 98 | 100 | 100 | 100 | 0.1 |
| N#Cc1ccc2c(c1OCc1ccc(CN3CCOCC3)cc1)CN([C@H]1CCCC(=O)NC1=O)C2=O [Compound 19, 2-[(S)-2,7-Dioxo-3-azepanyl]-4-{[p-(morpholinomethyl)phenyl]methoxy}-1-oxo-5-isoindolinecarbonitrile] | 22 | 65 | 12 | 43 | 41 | 73 | 1.5 | 2.4 | – | – | – | 0 | 0 | – | – | – | – |
| Cc1cnc(Nc2ccc(OCCCNCC(=O)NCc3ccc(COc4cc(F)cc5c4CN([C@H]4CCCC(=O)NC4=O)C5=O)cc3)cc2)nc1Nc1cccc(S(=O)(=O)NC(C)(C)C)c1 [Compound 21] | – | 6 | – | 8 | – | 20 | – | 0.9 | – | – | – | 0 | 97 | 11 | 7 | 30 | 1 |
| Cc1cnc(Nc2ccc(OCCCNCC(=O)NCc3ccc(COc4cccc5c4CN([C@H]4CCC(=O)NC4=O)C5=O)cc3)cc2)nc1Nc1cccc(S(=O)(=O)NC(C)(C)C)c1 [Compound 24] | – | 7 | – | 9 | – | 10 | – | 1 | – | – | – | 44 | 80 | 23 | 1 | 23 | 1 |
| Cc1cnc(Nc2ccc(OCCCNCC(=O)NCc3ccc(COc4cc(F)cc5c4CN([C@H]4CCC(=O)NC4=O)C5=O)cc3)cc2)nc1Nc1cccc(S(=O)(=O)NC(C)(C)C)c1 [Compound 25] | 0 | 8 | 3 | 32 | 13 | 25 | 0.9 | 1 | – | – | – | 54 | 90 | – | – | – | – |
